# From patent US20230391752A1, “PYRROLIDINE-3-CARBOXAMIDE DERIVATIVES AND RELATED USES” (Chulalongkorn University, priority 2020, published 2023)
# Tested on: HBV
# Assay: In vitro anti-HBV activity in HepG2.2.15 cell line (intracellular HBV DNA by qPCR at 1 μM)
# Format: cell-based
# Conditions: Hepatitis B virus, 144 h; HepG2.2.15 cells, 1 μM compound, 6 days, intracellular HBV DNA as percentage compared to vehicle control (0.5% DMSO)
# Method in brief: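 Intracellular HBV DNA was quantified by qPCR and given as percent of vehicle (0.5% DMSO), grouped into letter ranges. Stably transfected HepG2.2.15 cells had 6 days of exposure to 1 μM compound, with medium and compound renewed after day 3.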
row,Structure (SMILES),activity at 1 µM
1,"O=C(Nc1cc(F)c(F)c(F)c1)[C@H]1CCN(C(=O)c2ccc(-c3ccncc3F)[nH]2)C1 [Example 95, (S)-1-(5-(3-fluoropyridin-4-yl)-1H-pyrrole-2-carbonyl)-N-(3,4,5-trifluorophenyl) pyrrolidine-3-carboxamide]",45 to 60%
2,"O=C(Nc1cc(F)c(F)c(F)c1)[C@H]1CCN(C(=O)c2ccc(-c3cccnn3)[nH]2)C1 [Example 96, (S)-1-(5-(pyridazin-3-yl)-1H-pyrrole-2-carbonyl)-N-(3,4,5-trifluorophenyl)pyrrolidine-3-carboxamide]",45 to 60%
3,"N#Cc1ncccc1-c1ccc(C(=O)N2CC[C@H](C(=O)Nc3cc(F)c(F)c(F)c3)C2)[nH]1 [Example 97, (S)-1-(5-(2-cyanopyridin-3-yl)-1H-pyrrole-2-carbonyl)-N-(3,4,5-trifluorophenyl) pyrrolidine-3-carboxamide]",< 45%
4,"Cc1ccnnc1-c1ccc(C(=O)N2CC[C@H](C(=O)Nc3cc(F)c(F)c(F)c3)C2)[nH]1 [Example 98, (S)-1-(5-(4-methylpyridazin-3-yl)-1H-pyrrole-2-carbonyl)-N-(3,4,5-trifluorophenyl) pyrrolidine-3-carboxamide]",70 to 80%
5,"COc1ncnc(C)c1-c1ccc(C(=O)N2CC[C@H](C(=O)Nc3ccc(F)c(Cl)c3)C2)[nH]1 [Example 106, (S)—N-(3-chloro-4-fluorophenyl)-1-(5-(4-methoxy-6-methylpyrimidin-5-yl)-1H-pyrrole-2-carbonyl)pyrrolidine-3-carboxamide]",< 45%
6,"Cc1ncn(C)c1-c1ccc(C(=O)N2CC[C@H](C(=O)Nc3cc(F)c(F)c(F)c3)C2)[nH]1 [Example 107, (S)-1-(5-(1,4-dimethyl-1H-imidazol-5-yl)-1H-pyrrole-2-carbonyl)-N-(3,4,5-trifluorophenyl) pyrrolidine-3-carboxamide]",70 to 80%
7,"Cc1ncsc1-c1ccc(C(=O)N2CC[C@H](C(=O)Nc3cc(F)c(F)c(F)c3)C2)[nH]1 [Example 108, (S)-1-(5-(4-methylthiazol-5-yl)-1H-pyrrole-2-carbonyl)-N-(3,4,5-trifluorophenyl) pyrrolidine-3-carboxamide]",45 to 60%
8,"Cc1noc(C)c1-c1ccc(C(=O)N2CC[C@H](C(=O)Nc3cc(F)c(F)c(F)c3)C2)[nH]1 [Example 109, (S)-1-(5-(3,5-dimethylisoxazol-4-yl)-1H-pyrrole-2-carbonyl)-N-(3,4,5-trifluorophenyl) pyrrolidine-3-carboxamide]",60 to 70%
9,"Cc1nn(CC(=O)N2CC(O)C2)c(C)c1-c1ccc(C(=O)N2CC[C@H](C(=O)Nc3cc(F)c(F)c(F)c3)C2)[nH]1 [Example 112, (S)-1-(5-(1-(2-(3-hydroxyazetidin-1-yl)-2-oxoethyl)-3,5-dimethyl-1H-pyrazol-4-yl)-1H-pyrrole-2-carbonyl)-N-(3,4,5-trifluorophenyl)pyrrolidine-3-carboxamide]",60 to 70%
10,"Cc1cc[nH]c(=O)c1-c1ccc(C(=O)N2CC[C@H](C(=O)Nc3cc(F)c(F)c(F)c3)C2)[nH]1 [Example 118, (S)-1-(5-(4-methyl-2-oxo-1,2-dihydropyridin-3-yl)-1H-pyrrole-2-carbonyl)-N-(3,4,5-trifluorophenyl)pyrrolidine-3-carboxamide]",60 to 70%
11,"O=C(Nc1cc(F)c(F)c(F)c1)[C@H]1CCN(C(=O)c2ccc(-c3cn[nH]c(=O)c3)[nH]2)C1 [Example 121, (S)-1-(5-(6-oxo-1,6-dihydropyridazin-4-yl)-1H-pyrrole-2-carbonyl)-N-(3,4,5-trifluorophenyl)pyrrolidine-3-carboxamide]",80 to 90%
12,"Cc1cn[nH]c(=O)c1-c1ccc(C(=O)N2CC[C@H](C(=O)Nc3cc(F)c(F)c(F)c3)C2)[nH]1 [Example 124, (S)-1-(5-(5-methyl-3-oxo-2,3-dihydropyridazin-4-yl)-1H-pyrrole-2-carbonyl)-N-(3,4,5-trifluorophenyl)pyrrolidine-3-carboxamide]",45 to 60%
13,"Cc1cc(NC(=O)[C@H]2CCN(C(=O)c3ccc(-c4c(C)nn(CCO)c4C)[nH]3)[C@H]2C)ccc1F [Example 126, (2S,3S)—N-(4-fluoro-3-methylphenyl)-1-(5-(1-(2-hydroxyethyl)-3,5-dimethyl-1H-pyrazol-4-yl)-1H-pyrrole-2-carbonyl)-2-methylpyrrolidine-3-carboxamide]",< 45%
14,"Cc1cc(NC(=O)[C@H]2CCN(C(=O)c3ccc(-c4ccnnc4)[nH]3)C2)ccc1F [Example 130, (S)—N-(4-fluoro-3-methylphenyl)-1-(5-(pyridazin-4-yl)-1H-pyrrole-2-carbonyl)pyrrolidine-3-carboxamide]",< 45%
15,"O=C(Nc1cc(F)c(F)c(F)c1)[C@H]1CCN(C(=O)c2ccc(-c3cnccn3)[nH]2)C1 [Example 131, (S)-1-(5-(pyrazin-2-yl)-1H-pyrrole-2-carbonyl)-N-(3,4,5-trifluorophenyl)pyrrolidine-3-carboxamide]",45 to 60%
16,"Cc1n[nH]c(C)c1-c1ccc2cc(C(=O)N3CC[C@H](C(=O)Nc4cc(F)c(F)c(F)c4)C3)[nH]c2c1 [Example 134, (S)-1-(6-(3,5-dimethyl-1H-pyrazol-4-yl)-1H-indole-2-carbonyl)-N-(3,4,5-trifluorophenyl)pyrrolidine-3-carboxamide]",< 45%

row,Structure (SMILES),activity at 1 µM
1,"Cc1ncnc(C)c1-c1ccc2c(Cl)c(C(=O)N3CC[C@H](C(=O)NCc4cnc(Cl)s4)C3)[nH]c2c1 [Example 136, (S)-1-(3-chloro-6-(4,6-dimethylpyrimidin-5-yl)-1H-indole-2-carbonyl)-N-((2-chlorothiazol-5-yl)methyl)pyrrolidine-3-carboxamide]",> 90%
2,"Cc1ncnc(C)c1-c1cccc2c(Cl)c(C(=O)N3CC[C@H](C(=O)Nc4ccc(F)c(C#N)c4)C3)[nH]c12 [Example 137, (S)-1-(3-chloro-7-(4,6-dimethylpyrimidin-5-yl)-1H-indole-2-carbonyl)-N-(3-cyano-4-fluorophenyl)pyrrolidine-3-carboxamide]",45 to 60%
3,"O=C(Nc1cc(F)c(F)c(F)c1)[C@H]1CCN(C(=O)c2[nH]c3ccccc3c2-c2cn[nH]c2)C1 [Example 140, (S)-1-(3-(1H-pyrazol-4-yl)-1H-indole-2-carbonyl)-N-(3,4,5-trifluorophenyl)pyrrolidine-3-carboxamide]",> 90%
4,O=C(c1cccnc1)c1ccc(C(=O)N2CC[C@H](C(=O)Nc3cc(F)c(F)c(F)c3)C2)[nH]1 [Example 142],> 90%
5,"O=C(Nc1cc(F)c(F)c(F)c1)[C@H]1CCN(C(=O)c2ccc(Cc3cccnc3)[nH]2)C1 [Example 143, (S)-1-(5-(pyridin-3-ylmethyl)-1H-pyrrole-2-carbonyl)-N-(3,4,5-trifluorophenyl)pyrrolidine-3-carboxamide]",> 90%
6,"Cc1ncccc1C(=O)c1ccc(C(=O)N2CC[C@H](C(=O)Nc3cc(F)c(F)c(F)c3)C2)[nH]1 [Example 144, (S)-1-(5-(2-methylnicotinoyl)-1H-pyrrole-2-carbonyl)-N-(3,4,5-trifluorophenyl)pyrrolidine-3-carboxamide]",> 90%
7,"Cc1ncccc1Cc1ccc(C(=O)N2CC[C@H](C(=O)Nc3cc(F)c(F)c(F)c3)C2)[nH]1 [Example 145, (S)-1-(5-((2-methylpyridin-3-yl)methyl)-1H-pyrrole-2-carbonyl)-N-(3,4,5-trifluorophenyl)pyrrolidine-3-carboxamide]",70 to 80%
8,"Cc1nn(C)cc1Cc1ccc(C(=O)N2CC[C@H](C(=O)Nc3cc(F)c(F)c(F)c3)C2)[nH]1 [Example 146, (S)-1-(5-((1,3-dimethyl-1H-pyrazol-4-yl)methyl)-1H-pyrrole-2-carbonyl)-N-(3,4,5-trifluorophenyl)pyrrolidine-3-carboxamide]",70 to 80%
9,"Cc1cc(NC(=O)[C@H]2CCN(C(=O)c3ccc(-c4c(C)nn(CC(=O)O)c4C)[nH]3)[C@H]2C)ccc1F [Example 147, 2-(4-(5-((2S,3S)-3-((4-fluoro-3-methylphenyl)carbamoyl)-2-methylpyrrolidine-1-carbonyl)-1H-pyrrol-2-yl)-3,5-dimethyl-1H-pyrazol-1-yl)acetic acid]",45 to 60%
10,"N#Cc1ncccc1-c1ccc(C(=O)N2CC[C@H](C(=O)Nc3ccc(F)c(Cl)c3)C2)[nH]1 [Example 148, (S)—N-(3-chloro-4-fluorophenyl)-1-(5-(2-cyanopyridin-3-yl)-1H-pyrrole-2-carbonyl)pyrrolidine-3-carboxamide]",45 to 60%
11,"Cc1c(-c2ccc(C(=O)N3CC[C@H](C(=O)Nc4cc(F)c(F)c(F)c4)C3)[nH]2)c2ncccc2n1C [Example 152, (S)-1-(5-(1,2-dimethyl-1H-pyrrolo[3,2-b]pyridin-3-yl)-1H-pyrrole-2-carbonyl)-N-(3,4,5-trifluorophenyl)pyrrolidine-3-carboxamide]",> 90%
12,"Cc1c(-c2ccc(C(=O)N3CC[C@H](C(=O)Nc4cc(F)c(F)c(F)c4)C3)[nH]2)c2cccnc2n1C [Example 153, (S)-1-(5-(1,2-dimethyl-1H-pyrrolo[2,3-b]pyridin-3-yl)-1H-pyrrole-2-carbonyl)-N-(3,4,5-trifluorophenyl)pyrrolidine-3-carboxamide]",< 45%
13,"Cn1cc(-c2ccc(C(=O)N3CC[C@H](C(=O)Nc4cc(F)c(F)c(F)c4)C3)[nH]2)c2ccncc21 [Example 158, (S)-1-(5-(1-methyl-1H-pyrrolo[2,3-c]pyridin-3-yl)-1H-pyrrole-2-carbonyl)-N-(3,4,5-trifluorophenyl)pyrrolidine-3-carboxamide]",60 to 70%
14,"Cc1cc(NC(=O)[C@@H]2CN(C(=O)c3[nH]c4ccccc4c3Cl)C[C@H]2C)ccc1F [Example 167, (3S,4S)-1-(3-chloro-1H-indole-2-carbonyl)-N-(4-fluoro-3-methylphenyl)-4-methylpyrrolidine-3-carboxamide]",45 to 60%
15,"Cc1cc(NC(=O)[C@@H]2CN(C(=O)c3ccc(-c4c(C)ncnc4C)[nH]3)C[C@H]2C)ccc1F [Example 168, (3S,4S)-1-(5-(4,6-dimethylpyrimidin-5-yl)-1H-pyrrole-2-carbonyl)-N-(4-fluoro-3-methylphenyl)-4-methylpyrrolidine-3-carboxamide]",45 to 60%
